This is an account of results in patent US12338203B2 (TAISHO PHARMACEUTICAL CO., LTD., priority 2019, dated 2025).

The target in this assay is T1, human LPAR1 (Homo sapiens, UniProt Q92633).
T1 construct: expressed in transfected cells
T1 sequence (Q92633 whole entry): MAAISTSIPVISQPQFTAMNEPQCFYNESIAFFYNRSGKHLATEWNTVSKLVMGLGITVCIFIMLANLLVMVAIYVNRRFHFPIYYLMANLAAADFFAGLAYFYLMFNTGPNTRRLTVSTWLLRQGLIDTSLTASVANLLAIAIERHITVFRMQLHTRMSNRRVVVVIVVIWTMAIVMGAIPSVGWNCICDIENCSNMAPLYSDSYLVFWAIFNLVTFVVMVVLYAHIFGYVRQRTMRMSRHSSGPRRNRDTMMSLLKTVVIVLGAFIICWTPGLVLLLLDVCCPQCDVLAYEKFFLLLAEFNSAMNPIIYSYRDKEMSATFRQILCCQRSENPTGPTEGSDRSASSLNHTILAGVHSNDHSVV
Description: Test Example 1: antagonism against response of LPA-induced increase in intracellular Ca2+ concentration in RH7777 cells stably expressing human LPAR1. It counts as cell-based. Conditions: RH7777 cells stably expressing human LPAR1; Fluo-4 fluorescence, FDSS6000; read-out: IC50 value (concentration producing 50% antagonism against response of LPA-induced increase in intracellular Ca2+ concentration) (converted). The method, boiled down:
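RH7777 cells stably transfected with human LPAR1 were preincubated with test compound 30 min at 37 °C in HBSS/20 mM HEPES/probenecid/0.05% BSA buffer, pH 7.4, then LPA-stimulated.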
`CCOc1cc(C(C)N(CCOCc2ccccc2)C(=O)NC2(C(=O)O)CCC2)c(C)c(OCC)c1C(C)=O` (centres unmarked) [Example 5-191]: the IC50 was 1.45 nM. As to `CCOc1cc(C(C)N(CCOCc2ccccc2)C(=O)NC2(C(=O)O)CCC2)c(C)c(OCC)c1C1CC1` (centres unmarked) [Example 5-192], the IC50 is 0.47 nM. The figure for `CCOc1cc(C(C)N(CCOCc2ccccc2)C(=O)NC2(C(=O)O)CCC2)c(C)c(OCC)c1C` (centres unmarked) [Example 5-193] is 2 nM; for `CCOc1cc(C(C)N(CCOC(C)c2ccccc2)C(=O)NC2(C(=O)O)CCC2)c(C)c(OCC)c1C` (centres unmarked) [Example 5-194] it is 2.15 nM; for `CCOc1cc(C(C)N(CCOC(C)c2ccccc2)C(=O)NC2(C(=O)O)CCC2)c(Cl)c(OCC)c1C(C)=O` (centres unmarked) [Example 5-195] it is 2.07 nM. With `CCOc1cc(C(C)N(CCOCc2ccccc2)C(=O)NC2(C(=O)O)CC(F)(F)C2)cc(OCC)c1C1CC1` (centres unmarked) [Example 5-196] the figure was 1.41 nM. With `CCOc1cc(C(C)N(CCOCc2ccccc2)C(=O)NC2(C(=O)O)CC(F)(F)C2)c(Cl)c(OCC)c1C1CC1` (centres unmarked) [Example 5-197] the figure was 1.04 nM; with `CCOc1cc(C(C)N(CCCCc2ccccc2)C(=O)N[C@]2(C(=O)O)C[C@@H](OC)C2)c(C)c(OCC)c1C(C)=O` (some centres unmarked) [Example 5-198], 2.9 nM; with `CCOc1cc(C(C)N(CCOCc2ccccc2)C(=O)NC2(C(=O)O)CC(OC)C2)cc(OCC)c1C1CC1` (centres unmarked) [Example 5-199], 0.761 nM. For `CCOc1cc(C(C)N(CCOCc2ccccc2)C(=O)NC2(C(=O)O)CC(OC)C2)c(Cl)c(OCC)c1C1CC1` (centres unmarked) [Example 5-200], the IC50 is 0.548 nM. With `CCOc1cc(C(C)N(CCOCc2ccccc2)C(=O)NC2(C(=O)O)CC(OC)C2)c(C)c(OCC)c1C1CC1` (centres unmarked) [Example 5-201], the IC50 was 0.712 nM. The figure for `CCOc1cc(C(C)N(CCO[C@@H](C)c2ccccc2)C(=O)NC2(C(=O)O)CC(OC)C2)c(Cl)c(OCC)c1C1CC1` (some centres unmarked) [Example 5-202] is 1.62 nM; for `CCOc1cc(C(C)N(CCO[C@@H](C)c2ccccc2)C(=O)NC2(C(=O)O)CC(OC)C2)c(C)c(OCC)c1C1CC1` (some centres unmarked) [Example 5-203] it is 1.33 nM. With `CCOc1cc(C(C)N(CCOCc2ccccc2)C(=O)NC2(C(=O)O)CC(OC)C2)cc(OCC)c1C1CC1` (centres unmarked) [Example 5-204] the figure was 0.882 nM. For `CCOc1cc(C(C)N(CCOCc2ccccc2)C(=O)NC2(C(=O)O)CC(OC)C2)c(Cl)c(OCC)c1C(C)=O` (centres unmarked) [Example 5-205], the IC50 was 2.74 nM.

Take `CCOc1cc(C(C)N(CCOCc2ccccc2)C(=O)NC2(C(=O)O)CC(OC)C2)c(Cl)c(OCC)c1C1CC1` (centres unmarked) [Example 5-206]: the IC50 is 0.853 nM. As to `CCOc1cc(C(C)N(CCOC(C)c2ccccc2)C(=O)NC2(C(=O)O)CC(OC)C2)c(Cl)c(OCC)c1C1CC1` (centres unmarked) [Example 5-207], the IC50 was 1.36 nM. With `CCOc1cc(C(C)N(CCOC(C)c2ccccc2)C(=O)NC2(C(=O)O)CC(OC)C2)c(Cl)c(OCC)c1C(C)=O` (centres unmarked) [Example 5-208] the figure was 3.5 nM; with `CCOc1cc(C(C)N(CCCCc2ccccc2)C(=O)NC2(C(=O)O)CC(OCC)C2)c(Cl)c(OCC)c1C(C)=O` (centres unmarked) [Example 5-209], 2.75 nM; with `CCOc1cc(C(C)N(CCOCc2ccccc2)C(=O)NC2(C(=O)O)CC(OCC)C2)cc(OCC)c1C1CC1` (centres unmarked) [Example 5-211], 1.1 nM. Consider `CCOc1cc(C(C)N(CCOCc2ccccc2)C(=O)NC2(C(=O)O)CC(OCC)C2)c(Cl)c(OCC)c1C(C)=O` (centres unmarked) [Example 5-212], for which the IC50 is 1.98 nM.

In the case of `CCOc1cc(C(C)N(CCOCc2ccccc2)C(=O)NC2(C(=O)O)CC(OCC)C2)c(Cl)c(OCC)c1C1CC1` (centres unmarked) [Example 5-213], the IC50 was 0.847 nM. The figure for `CCOc1cc(C(C)N(CCOCc2ccccc2)C(=O)N[C@]2(C(=O)O)C[C@@H](OCC)C2)c(C)c(OCC)c1C(C)=O` (some centres unmarked) [Example 5-214] is 1.92 nM. The figure for `CCOc1cc(C(C)N(CCOCc2ccccc2)C(=O)NC2(C(=O)O)CC(OCC)C2)c(C)c(OCC)c1C1CC1` (centres unmarked) [Example 5-215] is 1.01 nM; for `CCOc1cc(C(C)N(CCO[C@@H](C)c2ccccc2)C(=O)NC2(C(=O)O)CC(OCC)C2)c(Cl)c(OCC)c1C1CC1` (some centres unmarked) [Example 5-216] it is 2.56 nM; for `CCOc1cc(C(C)N(CCO[C@@H](C)c2ccccc2)C(=O)NC2(C(=O)O)CC(OCC)C2)c(C)c(OCC)c1C1CC1` (some centres unmarked) [Example 5-217] it is 1.65 nM. With `CCOc1cc(C(C)N(CCO[C@@H](C)c2ccccc2)C(=O)N[C@]2(C(=O)O)C[C@@H](OCC)C2)c(Cl)c(OCC)c1C(C)=O` (some centres unmarked) [Example 5-218] the figure was 1.99 nM; with `CCOc1cc(C(C)N(CCOCc2ccccc2)C(=O)NC2(C(=O)O)CC(OCC)C2)cc(OCC)c1C1CC1` (centres unmarked) [Example 5-219], 0.813 nM. Regarding `CCOc1cc(C(C)N(CCOCc2ccccc2)C(=O)NC2(C(=O)O)CC(OCC)C2)c(Cl)c(OCC)c1C(C)=O` (centres unmarked) [Example 5-220], the IC50 was 2.13 nM. The figure for `CCOc1cc(C(C)N(CCOCc2ccccc2)C(=O)NC2(C(=O)O)CC(OCC)C2)c(Cl)c(OCC)c1C1CC1` (centres unmarked) [Example 5-221] is 0.695 nM.

In the case of `CCOc1cc(C(C)N(CCO[C@@H](C)c2ccccc2)C(=O)NC2(C(=O)O)CC(OCC)C2)c(Cl)c(OCC)c1C1CC1` (some centres unmarked) [Example 5-222], the IC50 was 1.79 nM. Turning to `CCOc1cc(C(C)N(CCO[C@@H](C)c2ccccc2)C(=O)NC2(C(=O)O)CC(OCC)C2)c(Cl)c(OCC)c1C(C)=O` (some centres unmarked) [Example 5-223], the IC50 is 2.08 nM.

`CCOc1cc(C(C)N(CCOCc2ccccc2)C(=O)NC2(C(=O)O)CCOCC2)cc(OCC)c1C1CC1` (centres unmarked) [Example 5-224]: the IC50 was 0.949 nM. With `CCOc1cc(C(C)N(CCOCc2ccccc2)C(=O)NC2(C(=O)O)CCOCC2)c(Cl)c(OCC)c1C1CC1` (centres unmarked) [Example 5-225] the figure was 0.809 nM; with `CCOc1cc(C(C)N(CCOCc2ccccc2)C(=O)NC2(C(=O)O)CCOCC2)c(C)c(OCC)c1C(C)=O` (centres unmarked) [Example 5-226], 4 nM.

Consider `CCOc1cc(C(C)N(CCOCc2ccccc2)C(=O)NC2(C(=O)O)CCOCC2)c(C)c(OCC)c1C1CC1` (centres unmarked) [Example 5-227], for which the IC50 was 0.851 nM. The figure for `CCOc1cc(C(C)N(CCCCc2ccccc2)C(=O)NC2(C(N)=O)CCCC2)cc(OCC)c1C` (centres unmarked) [Example 6-1, 1-({[1-(3,5-Diethoxy-4-Methylphenyl)Ethyl](4-Phenylbutyl) Carbamoyl}Amino)Cyclopentane-1-Carboxamide] is 1890 nM. Turning to `CCOc1cc(OCC)cc(C(C)N(CCCCc2ccccc2)C(=O)NC2(C(=O)OC)CCCC2)c1` (centres unmarked) [Example 6-2, Methyl 1-({[1-(3,5-Diethoxyphenyl)Ethyl](4-Phenylbutyl) Carbamoyl}Amino)Cyclopentane-1-Carboxylate], the IC50 is 3760 nM.

With `CCOc1cc([C@@H](C)N(CCO[C@@H](C)c2ccccc2)C(=O)NC2(C(=O)OC)CC2)c(Cl)c(OCC)c1C(C)=O` [Example 6-3, Methyl 1-[([(1R)-1-(4-Acetyl-2-Chloro-3,5-Diethoxyphenyl)Ethyl]{2-[(1S)-1-Phenylethoxy]Ethyl}Carbamoyl)Amino]Cyclopropane-1-Carboxylate], the IC50 was 672 nM. Consider `CCOc1cc(C(C)N(CCO[C@@H](C)c2ccccc2)C(=O)NC2(C(=O)OC)CC(OCC)C2)cc(OCC)c1C(C)=O` (some centres unmarked) [Example 6-4], for which the IC50 was 344 nM.

Take `CCOc1cc(C(C)N(CCO[C@@H](C)c2ccccc2)C(=O)NC2(C(=O)OC)CC(OCC)C2)c(Cl)c(OCC)c1C(C)=O` (some centres unmarked) [Example 6-5]: the IC50 is 272 nM.

As for `CCOc1cc(C(C)N(CCO[C@@H](C)c2ccccc2)C(=O)NC2(C(=O)OC)CC(F)(F)C2)cc(OCC)c1C(C)=O` (some centres unmarked) [Example 6-6], the IC50 was 435 nM.

With `CCOc1cc(C(C)N(CCO[C@@H](C)c2ccccc2)C(=O)NC2(C(=O)OC)CC(F)(F)C2)c(Cl)c(OCC)c1C(C)=O` (some centres unmarked) [Example 6-7], the IC50 was 443 nM. For `CCOC(=O)C1(NC(=O)N(CCO[C@@H](C)c2ccccc2)C(C)c2cc(OCC)c(C(C)=O)c(OCC)c2Cl)CC1` (some centres unmarked) [Example 6-8], the IC50 was 2840 nM. The figure for `CCOC(=O)C1(NC(=O)N(CCO[C@@H](C)c2ccccc2)C(C)c2cc(OCC)c(C(C)=O)c(OCC)c2)CC(OCC)C1` (some centres unmarked) [Example 6-9] is 1010 nM; for `CCOC(=O)C1(NC(=O)N(CCO[C@@H](C)c2ccccc2)C(C)c2cc(OCC)c(C(C)=O)c(OCC)c2Cl)CC(OCC)C1` (some centres unmarked) [Example 6-10] it is 1040 nM; for `CCOC(=O)C1(NC(=O)N(CCO[C@@H](C)c2ccccc2)C(C)c2cc(OCC)c(C(C)=O)c(OCC)c2Cl)CC(F)(F)C1` (some centres unmarked) [Example 6-12] it is 1270 nM. In the case of `CCOc1cc(C(C)N(CCO[C@@H](C)c2ccccc2)C(=O)NC2(C(=O)OC(C)(C)C)CC2)c(Cl)c(OCC)c1C(C)=O` (some centres unmarked) [Example 6-13], the IC50 was 3040 nM. The figure for `CCOc1cc(C(C)N(CCO[C@@H](C)c2ccccc2)C(=O)NC2(C(=O)OC(C)(C)C)CC(OCC)C2)cc(OCC)c1C(C)=O` (some centres unmarked) [Example 6-14] is 3530 nM. The figure for `CCOc1cc(C(C)N(CCO[C@@H](C)c2ccccc2)C(=O)NC2(C(=O)OC(C)(C)C)CC(OCC)C2)c(Cl)c(OCC)c1C(C)=O` (some centres unmarked) [Example 6-15] is 3340 nM; for `CCOc1cc(C(C)N(CCO[C@@H](C)c2ccccc2)C(=O)NC2(C(=O)OC(C)(C)C)CC(F)(F)C2)cc(OCC)c1C(C)=O` (some centres unmarked) [Example 6-16] it is 13000 nM; for `CCOc1cc(C(C)N(CCO[C@@H](C)c2ccccc2)C(=O)NC2(C(=O)OC(C)(C)C)CC(F)(F)C2)c(Cl)c(OCC)c1C(C)=O` (some centres unmarked) [Example 6-17] it is 10200 nM. For the compound `CCOc1cc([C@@H](C)N(CCCCc2ccccc2)C(=O)NC2(C(=O)NS(C)(=O)=O)CC(F)(F)C2)cc(OCC)c1C(C)=O` [Example 7-1, 1-({[(1R)-1-(4-Acetyl-3,5-Diethoxyphenyl)Ethyl](4-Phenylbutyl) Carbamoyl}Amino)-3,3-Difluoro-N-(Methanesulfonyl)Cyclobutane-1-Carboxamide], the IC50 was 2.75 nM.
